The AC50 is the concentration giving half of the maximal activity seen. By EC50 is commonly meant the concentration at which the effect is half-maximal.

Structures are written as SMILES. Calls of active or inactive are those of the source.

From ChEMBL document CHEMBL1201862, “PubChem BioAssay data set” (2004) come the findings set out here.

Assay [1] can be described thus: HEK293 cell cytotoxicity, dose response, cytotoxicity control, plate reader, cherry-picked samples (AID 743446). It is filed as functional, cell-based.
Assay [2] is described as follows: HepG2 cell cytotoxicity, dose response, cytotoxicity control, plate reader, cherry-pick, antagonist series (AID 743416). It is filed as functional, cell-based.
A short description of assay [3]: A549 cell cytotoxicity, dose response, cytotoxicity control, plate reader, cherry-pick, antagonist series (AID 743412). It is filed as functional, cell-based.
Assay [4] is described as follows: MC4R antagonists, dose response, counter-screen for LGR2 antagonist project, cell-based, plate reader, cherry pick (AID 743444).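 Further: transfected HEK 293 cells stimulated with alpha-MSH peptide; potency of inhibitors of the alpha-MSH evoked signal.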 It is filed as functional. Background: The purpose of a counterscreen is to sort out artefacts and off-target activity.
Assay [5] addresses T1, Acyl-homoserine lactone acylase PvdQ (Pseudomonas aeruginosa (strain LESB58), UniProt Q9I194).
T1 sequence (Q9I194 whole entry): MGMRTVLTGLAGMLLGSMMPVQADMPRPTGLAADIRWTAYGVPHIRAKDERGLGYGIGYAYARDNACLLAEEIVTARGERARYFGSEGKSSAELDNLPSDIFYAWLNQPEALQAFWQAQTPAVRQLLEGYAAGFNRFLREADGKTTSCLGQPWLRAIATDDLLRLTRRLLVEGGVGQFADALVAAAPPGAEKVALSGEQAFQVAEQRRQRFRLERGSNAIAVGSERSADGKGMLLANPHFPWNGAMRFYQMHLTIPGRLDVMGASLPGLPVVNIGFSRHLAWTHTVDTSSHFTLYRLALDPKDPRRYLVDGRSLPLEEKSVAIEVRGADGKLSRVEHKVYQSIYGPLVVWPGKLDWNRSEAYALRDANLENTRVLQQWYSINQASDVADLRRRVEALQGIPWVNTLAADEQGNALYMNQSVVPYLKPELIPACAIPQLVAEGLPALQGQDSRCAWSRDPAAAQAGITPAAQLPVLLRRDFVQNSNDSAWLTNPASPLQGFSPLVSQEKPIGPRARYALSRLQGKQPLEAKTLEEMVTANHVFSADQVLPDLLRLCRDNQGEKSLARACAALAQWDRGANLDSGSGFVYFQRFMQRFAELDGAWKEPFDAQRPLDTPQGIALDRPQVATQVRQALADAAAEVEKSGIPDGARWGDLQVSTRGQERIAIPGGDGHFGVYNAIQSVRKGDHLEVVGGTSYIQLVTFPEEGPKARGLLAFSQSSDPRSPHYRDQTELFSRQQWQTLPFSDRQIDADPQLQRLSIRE
The assay is described as follows: P. aeruginosa PvdQ acylase inhibitors, dose response, biochemical, fluorescence, plate reader and imaging, cherry-picks (AID 493231).

Assay [6] in a line: cytotoxicity in HEK-293T cells, dose response, cytotoxicity control for TCR NF-kB inhibitor project, luminescence, T-cell screen hits (AID 489026).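 Further: cells exposed to compound about 14 hours before the viability readout.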 It is filed as functional, cell-based.
The nature of assay [7]: LGR2 antagonists, dose response, cell-based, HEK293, CRE-luciferase reporter, cherry pick, set 2 (AID 743343).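 Further: transfected cells were stimulated with diluted bursicon conditioned medium after compound addition.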 It is filed as functional. A general note: A reporter such as luciferase makes a cellular process visible.
Assay [8] concerns the target COUP transcription factor 2 (Homo sapiens, UniProt P24468). The assay is described as follows: Luminescence-based cell-based high throughput dose response assay to identify inhibitors of COUP-TFII (NR2F2). It is filed as functional.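 Further: HEK293 cells transiently cotransfected with COUP-TFII expression vector and reporter; luciferase reporter luminescence driven by COUP-TFII from the pX2-168 reporter plasmid.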
Assay [9] concerns the target T2, Sentrin-specific protease 8 (Homo sapiens, UniProt Q96LD8).
T2 sequence (Q96LD8 whole entry): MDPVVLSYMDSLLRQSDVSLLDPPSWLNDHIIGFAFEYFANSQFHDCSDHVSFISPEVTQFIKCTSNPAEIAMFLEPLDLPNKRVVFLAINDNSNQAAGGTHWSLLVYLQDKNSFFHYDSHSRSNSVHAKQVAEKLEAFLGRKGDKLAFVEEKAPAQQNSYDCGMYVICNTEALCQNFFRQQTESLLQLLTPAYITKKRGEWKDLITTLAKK
It is filed as functional.

In assay [10] the target is T2, Sentrin-specific protease 8. It is filed as functional. The source holds these as a separate data set.
Assay [11] can be described thus: Luminescence Cell-Based Dose Confirmation HTS to Identify Activators of 5'UTR Stem-Loop Driven Alpha-Synuclein mRNA Translation in H4 Neuroglioblastoma Cells. [Related pubchem assays: 1829 (Project Summary), 1814 (Primary HTS)]. It is filed as functional.
Assay [12] deals with H4. The assay is described as follows: Luminescence Cell-Based Dose Response HTS to Identify Activators of 5'UTR Stem-Loop Driven Prion Protein mRNA Translation in H4 Neuroglioblastoma Cells. [Related pubchem assays: 1829 (Project Summary), 1814 (Primary HTS)]. It is filed as functional. As to conditions: Homo sapiens.
Assay [13] concerns the target SWI/SNF-related matrix-associated actin-dependent regulator of chromatin subfamily A member 2 (Homo sapiens, UniProt P51531). The assay is described as follows: Luminescence-based cell-based high throughput dose response assay to identify activators of the function of SWI/SNF related, matrix associated, actin dependent regulator of chromatin, subfamily a, member 2 (SMARCA2, BRM). It is filed as functional.

The nature of assay [14]: Luminescence Cell-Based Dose Response HTS to Identify Activators of Luciferase Translation or Activity in H4 […] Cells. [Related pubchem assays: 1829 (Project Summary), 1814 (Primary HTS)]. It is filed as functional.
Assay [15] in a line: Counterscreen for activators of the function of SWI/SNF related, matrix associated, actin dependent regulator of chromatin, subfamily a, member 2 (SMARCA2, BRM): Luminescence-based cell-based high throughput dose response assay to identify non-selective compounds using the VP16 reporter assay. It is filed as functional.
Assay [16] deals with T3, Probable nicotinate-nucleotide adenylyltransferase (Staphylococcus aureus (strain N315), UniProt P65502). It is filed as functional, Staphylococcus aureus subsp. aureus N315. As to conditions: read-out: IC50_Mean.
T3 sequence (P65502 whole entry): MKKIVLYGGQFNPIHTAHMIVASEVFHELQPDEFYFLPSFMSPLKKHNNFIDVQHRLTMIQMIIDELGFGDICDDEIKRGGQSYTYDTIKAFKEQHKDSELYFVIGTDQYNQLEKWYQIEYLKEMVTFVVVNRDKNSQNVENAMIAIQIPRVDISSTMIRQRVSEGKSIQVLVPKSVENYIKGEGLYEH
For assay [17], the system named is HEK293. The assay is described as follows: cells. It is filed as functional, cell-based. As to conditions: Homo sapiens.
Assay [18] concerns HEK293. Briefly: cells. It is filed as functional, cell-based. As to conditions: Homo sapiens. This is another data set of the same source.
In assay [19] the target is T3, Probable nicotinate-nucleotide adenylyltransferase. It is filed as functional, Staphylococcus aureus subsp. aureus N315.
The subject of assay [20] is HEK293. Briefly: NOD1 signaling inhibitors, primary screen, cell-based, luminescence, uHTS (AID 1578). It is filed as functional. As to conditions: Homo sapiens.
The target in assay [21] is Nucleotide-binding oligomerization domain-containing protein 2 (Homo sapiens, UniProt Q9HC29). Briefly: NOD2 signaling inhibitors, cell-based, luminescence, uHTS, HEK293 (AID 1566). It is filed as functional.
Sequence of Nucleotide-binding oligomerization domain-containing protein 2 (Q9HC29 whole entry, the tested form may be a part): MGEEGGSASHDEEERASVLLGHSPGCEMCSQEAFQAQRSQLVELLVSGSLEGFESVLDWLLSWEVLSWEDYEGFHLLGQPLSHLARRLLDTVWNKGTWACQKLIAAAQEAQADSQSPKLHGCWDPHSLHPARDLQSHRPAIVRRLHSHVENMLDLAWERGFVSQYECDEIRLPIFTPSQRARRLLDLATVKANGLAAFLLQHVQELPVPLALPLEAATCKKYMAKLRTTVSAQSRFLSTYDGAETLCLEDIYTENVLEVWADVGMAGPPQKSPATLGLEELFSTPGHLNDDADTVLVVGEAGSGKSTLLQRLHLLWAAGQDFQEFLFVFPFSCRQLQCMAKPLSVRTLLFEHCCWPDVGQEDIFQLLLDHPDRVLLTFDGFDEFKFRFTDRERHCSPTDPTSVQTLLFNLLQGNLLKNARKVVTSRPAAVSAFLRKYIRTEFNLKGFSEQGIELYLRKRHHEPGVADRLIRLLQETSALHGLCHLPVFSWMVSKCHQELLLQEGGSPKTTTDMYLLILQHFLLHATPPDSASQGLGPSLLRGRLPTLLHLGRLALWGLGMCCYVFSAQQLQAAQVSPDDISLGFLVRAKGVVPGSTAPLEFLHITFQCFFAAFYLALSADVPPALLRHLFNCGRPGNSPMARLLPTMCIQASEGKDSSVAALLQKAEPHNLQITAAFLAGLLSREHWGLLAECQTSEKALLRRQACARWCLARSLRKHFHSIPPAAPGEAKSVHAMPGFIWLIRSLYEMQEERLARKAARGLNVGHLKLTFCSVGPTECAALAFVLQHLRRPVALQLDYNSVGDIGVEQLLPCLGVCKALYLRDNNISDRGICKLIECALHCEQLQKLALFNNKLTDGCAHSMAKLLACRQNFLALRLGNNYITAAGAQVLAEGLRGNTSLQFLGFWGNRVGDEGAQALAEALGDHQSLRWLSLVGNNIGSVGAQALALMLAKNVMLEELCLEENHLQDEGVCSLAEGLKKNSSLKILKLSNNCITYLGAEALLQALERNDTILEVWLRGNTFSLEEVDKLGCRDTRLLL
Assay [22] concerns HEK293. Briefly: NOD2 signaling inhibitors in MDP-stimulated cells, cell-based, uHTS, luminescence (AID 2001). It is filed as functional. As to conditions: Homo sapiens.
Assay [23] has as its system HEK293. Briefly: cells. As to conditions: Homo sapiens. It is filed as functional, cell-based. This is another data set of the same source.
Assay [24] addresses T4, Methionyl-tRNA synthetase, putative (Trypanosoma brucei brucei, UniProt Q38C91).
T4 sequence (Q38C91 whole entry): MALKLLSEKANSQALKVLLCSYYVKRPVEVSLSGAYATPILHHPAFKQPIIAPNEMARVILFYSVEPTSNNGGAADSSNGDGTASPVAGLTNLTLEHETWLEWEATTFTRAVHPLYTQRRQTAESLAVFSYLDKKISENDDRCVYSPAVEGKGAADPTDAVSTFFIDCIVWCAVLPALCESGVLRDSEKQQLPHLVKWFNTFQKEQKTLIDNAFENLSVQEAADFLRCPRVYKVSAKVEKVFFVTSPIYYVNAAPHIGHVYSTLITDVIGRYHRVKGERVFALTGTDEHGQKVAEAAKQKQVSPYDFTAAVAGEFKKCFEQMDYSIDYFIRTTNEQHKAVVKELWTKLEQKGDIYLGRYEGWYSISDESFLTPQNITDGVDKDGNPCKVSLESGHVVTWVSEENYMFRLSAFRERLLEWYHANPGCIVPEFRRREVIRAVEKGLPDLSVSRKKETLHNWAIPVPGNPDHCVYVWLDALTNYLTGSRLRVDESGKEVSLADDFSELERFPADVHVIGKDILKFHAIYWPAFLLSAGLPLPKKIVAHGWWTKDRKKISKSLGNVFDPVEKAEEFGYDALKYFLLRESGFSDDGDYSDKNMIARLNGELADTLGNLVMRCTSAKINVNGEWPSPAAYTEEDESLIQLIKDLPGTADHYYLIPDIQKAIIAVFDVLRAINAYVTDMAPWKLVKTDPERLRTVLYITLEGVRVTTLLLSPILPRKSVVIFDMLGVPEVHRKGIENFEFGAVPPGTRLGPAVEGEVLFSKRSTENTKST
It is filed as functional, Trypanosoma brucei brucei strain 927/4 GUTat10.1.

Assay [25] in a line: Counterscreen for inhibitors of Trypanosoma brucei methionyl tRNA synthetase (MetRS): Luminescence-based cell-based high throughput dose response assay to identify compounds that are cytotoxic to Jurkat human T lymphocyte cells. It is filed as functional.
For assay [26], the target named is T4, Methionyl-tRNA synthetase, putative. It is filed as functional, Trypanosoma brucei brucei strain 927/4 GUTat10.1. The source holds these as a separate data set.
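Wherever IC50 Mean is given: confirmatory dose-response retesting of NadD inhibitor hits first found in an ultra-high-throughput screen.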

Sequence of COUP transcription factor 2 (P24468 whole entry): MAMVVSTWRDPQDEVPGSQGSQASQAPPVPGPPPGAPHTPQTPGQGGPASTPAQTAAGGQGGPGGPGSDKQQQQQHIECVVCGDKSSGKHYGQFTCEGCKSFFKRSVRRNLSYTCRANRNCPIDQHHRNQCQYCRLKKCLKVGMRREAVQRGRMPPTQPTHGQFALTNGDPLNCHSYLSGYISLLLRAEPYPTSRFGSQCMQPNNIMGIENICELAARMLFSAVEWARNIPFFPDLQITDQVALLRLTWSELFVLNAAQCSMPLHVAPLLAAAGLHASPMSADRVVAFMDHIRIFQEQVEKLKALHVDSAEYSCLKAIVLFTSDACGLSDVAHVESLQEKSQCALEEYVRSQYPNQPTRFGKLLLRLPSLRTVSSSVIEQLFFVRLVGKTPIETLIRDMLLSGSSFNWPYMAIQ
Sequence of SWI/SNF-related matrix-associated actin-dependent regulator of chromatin subfamily A member 2 (P51531 whole entry): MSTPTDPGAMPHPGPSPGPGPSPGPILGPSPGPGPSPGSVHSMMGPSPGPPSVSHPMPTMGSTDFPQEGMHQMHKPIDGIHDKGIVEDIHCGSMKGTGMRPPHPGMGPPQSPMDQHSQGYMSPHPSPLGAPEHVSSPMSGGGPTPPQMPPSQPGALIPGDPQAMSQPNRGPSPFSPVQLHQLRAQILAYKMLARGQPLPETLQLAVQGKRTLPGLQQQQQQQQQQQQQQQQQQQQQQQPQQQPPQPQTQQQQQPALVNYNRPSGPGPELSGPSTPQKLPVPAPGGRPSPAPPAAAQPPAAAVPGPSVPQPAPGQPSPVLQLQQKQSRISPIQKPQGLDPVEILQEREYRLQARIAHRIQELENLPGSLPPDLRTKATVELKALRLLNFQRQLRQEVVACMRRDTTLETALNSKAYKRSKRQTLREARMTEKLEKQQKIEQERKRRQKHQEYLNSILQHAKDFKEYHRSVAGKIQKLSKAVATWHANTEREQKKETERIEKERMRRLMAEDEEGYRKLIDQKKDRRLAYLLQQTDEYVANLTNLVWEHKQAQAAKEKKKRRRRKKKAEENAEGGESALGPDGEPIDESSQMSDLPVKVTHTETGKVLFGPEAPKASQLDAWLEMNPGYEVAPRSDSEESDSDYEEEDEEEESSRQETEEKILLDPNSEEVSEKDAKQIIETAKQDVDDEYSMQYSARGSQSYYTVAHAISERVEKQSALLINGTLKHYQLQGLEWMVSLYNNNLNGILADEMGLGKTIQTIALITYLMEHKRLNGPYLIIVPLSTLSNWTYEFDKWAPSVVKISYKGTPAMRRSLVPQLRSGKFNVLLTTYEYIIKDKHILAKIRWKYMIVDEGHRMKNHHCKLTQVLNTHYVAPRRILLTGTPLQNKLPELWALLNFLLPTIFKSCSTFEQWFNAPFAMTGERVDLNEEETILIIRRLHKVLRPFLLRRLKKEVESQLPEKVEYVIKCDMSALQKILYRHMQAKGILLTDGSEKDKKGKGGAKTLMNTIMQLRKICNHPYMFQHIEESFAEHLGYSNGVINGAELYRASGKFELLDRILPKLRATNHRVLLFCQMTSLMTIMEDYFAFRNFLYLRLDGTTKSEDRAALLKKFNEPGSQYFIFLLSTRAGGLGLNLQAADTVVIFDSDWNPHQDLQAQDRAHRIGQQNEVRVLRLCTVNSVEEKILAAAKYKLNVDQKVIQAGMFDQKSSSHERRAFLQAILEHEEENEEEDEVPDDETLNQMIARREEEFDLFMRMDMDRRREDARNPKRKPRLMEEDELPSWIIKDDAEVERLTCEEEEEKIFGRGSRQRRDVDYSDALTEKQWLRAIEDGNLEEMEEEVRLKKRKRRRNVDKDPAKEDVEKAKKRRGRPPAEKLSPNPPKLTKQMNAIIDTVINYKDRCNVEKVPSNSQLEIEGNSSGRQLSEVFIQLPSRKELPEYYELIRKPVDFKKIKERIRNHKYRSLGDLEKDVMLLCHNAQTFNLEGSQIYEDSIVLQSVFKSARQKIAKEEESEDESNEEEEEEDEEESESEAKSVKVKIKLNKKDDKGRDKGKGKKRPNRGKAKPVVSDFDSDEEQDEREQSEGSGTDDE

Turning to `Cc1ccc2nc(-c3ccc4c(c3)OCCO4)cn2c1`, the AC50 in assay [1] was 2.21 µM (active); in assay [2] it was 2.18 µM (active); in assay [3], 2.56 µM (active); in [4] it was 0.527 µM (active); in assay [5], 1.27 µM (active); in assay [7] it was 0.366 µM (active). Also, in assay [6], the IC50 was > 80 µM (inactive).

For `Cc1nnsc1NC(=O)OCc1ccc(C(C)(C)C)cc1`, the IC50 in assay [8] is 10.4 µM (inactive).

Take `COc1ccccc1NC(=O)c1cn(C)c(=O)c2cc(OC)c(OC)cc12`: the values for the IC50 in assay [9] and in assay [10] were 10.2 µM (active) and 48.1 µM (active), respectively.

As to `Nc1cc(C2CCCC2)nn1-c1ccccc1`, the EC50 is 0.13 µM (active) in assay [11]; 6.8 µM (active) in [12]; > 91.2 µM (inactive) in assay [13]; 7.02 µM (active) in [14]; > 91.2 µM (inactive) in assay [15].

As to `Cc1ccc(NS(=O)(=O)c2cc(NC(=O)c3ccc4c(c3)NC(=O)CS4)ccc2Cl)c(C)c1`, the IC50 in [16] was 48.8 µM (active); in assay [17] it was 6.3 µM (active); in assay [18], > 20 µM (inactive); in [19], 19.5 µM (active); in assay [22], 7.17 µM (inactive); in assay [23], 11.5 µM (active). The EC50 is 6.38 µM (active) in [20] and 14.3 µM (active) in assay [21].

As for `O=c1c(OC2OC(CO)C(O)C(O)C2OC2OC(CO)C(O)C(O)C2O)c(-c2ccc(O)cc2)oc2cc(O)cc(O)c12` (stereo unspecified), the results for the IC50 in assay [24], in assay [25] and in assay [26] were 20.9 µM (inactive), 83.3 µM (inactive) and 38.8 µM (inactive), respectively.
